According to patent publication US10285962B2, “Glutarate compounds for treating ischemia-reperfusion injuries” (The Regents of the University of California, priority 2016, dated 2019):

How the values were obtained:
[1] = system: myocardial infarct size in IR injury; parameters: protection against IR injury (TTC stained cross-sections): dose or concentration left out as unconfirmed; details: for protection against IR injury (TTC stained cross-sections): single IV bolus at reperfusion
[2] = system: electron flow through the ETC (Complex I, II, IV); assay: electron flow through the ETC, OCR of isolated mouse heart mitochondria; assay type: biochemical
[3] = molecular target: heart ATP synthase (complex V) (Mus musculus, UniProt P56480); assay: respiration of mitochondria isolated from mouse heart (ATP synthase / complex V inhibition)

CC[C@H]1/C=C/C=C/C[C@@H](C)[C@H](O)[C@@](C)(O)C(=O)[C@@H](C)[C@H](O)[C@@H](C)C(=O)[C@@H](C)[C@H](O)[C@@H](C)/C=C/C(=O)O[C@@H]2[C@H](C)[C@H](CC1)O[C@]1(CC[C@H](C)[C@H](C[C@@H](C)O)O1)[C@H]2C [oligomycin]
toxicity ([1]; 5 μM, administered at the time of reperfusion): toxic | myocardial infarct size ([1]; lower doses (e.g., 10 nM) given at reperfusion): significantly reduce myocardial infarct size

O=C(O)CCC(=O)O [succinate]
protection against IR injury (TTC stained cross-sections) [1]: does not

CC(C)(COP(=O)(O)OP(=O)(O)OC[C@H]1O[C@@H](n2cnc3c(N)ncnc32)[C@H](O)[C@@H]1OP(=O)(O)O)[C@@H](O)C(=O)NCCC(=O)NCCSC(=O)CCC(=O)O [succinyl-CoA]
protection against IR injury (TTC stained cross-sections) [1]: significant protection

O=C(O)CCC(=O)C(=O)O [α-KG, α-ketoglutarate]
reduction of infarct size ([1]; mouse, in vivo): about 70% | protection in the presence of the HIF-1 inhibitor echinomycin ([1]; mouse, in vivo, iv): fully protective | electron flow through the ETC ([2]; isolated mouse heart mitochondria): does not affect | Complex I, Complex II, or Complex IV respiration ([2]; sequential rotenone, succinate, antimycin A, TMPD): No difference | complex V activity ([3]; […]): inhibits | state 3 respiration ([3]; initiated by 2 mM ADP): decreases
